Assay results reported in patent US20230303577A1, “TEMOZOLOMIDE ANALOGS AND METHODS OF USE” (St. John's Cancer Institute, priority 2020, published 2023).
Where two headings read alike, the source gives them in different places.

Experiments:
[1] = Metabolic stability in mouse liver microsomes; type: in vitro ADME
Experimental: Metabolic stability of the compounds was also determined in mouse liver microsomes at five time points over 60 minutes, using HPLC-MS. Liver microsomes, as vesicles of the hepatocyte endoplasmic reticulum, contain membrane phase I enzymes namely CYPs, flavine-containing monooxygenases (FMO), esterases, amidases, and epoxide hydrolases, and also the phase II enzymes such as UGTs. For the catalytic activity of both phase I and II enzymes, addition of exogenous cofactors such as NADPH for CYPs and FMO, and UDPGA/alamethicin for UGTs is necessary.

T98G cells = test: Cell Titer Glo viability of T98G cells with or without O6-BG pretreatment; type: cell-based
Experimental: T98G cells, which express MGMT, were treated with TMZ or test compounds with or without 3, 6, or 24 hours of pretreatment with 100 μM of O^6-benzylguanine (O^6-BG; a pseudo-substrate of MGMT that quenches the cellular store of enzyme). T98G cell lysates were probed with anti-MGMT antibody and then with anti-a tubulin (FIG. 4). In a separate experiment, TMZ or test compounds were added to T98G cells with or without 5-6 hours of pretreatment with 100 μM O^6-BG. Cell viability was measured using the Cell Titer Glo assay after 3 days of incubation and IC50 values were determined (Table 3).

[2] = BBB permeability, cassette intravenous dosing; type: in vivo, male CD-1 mice; settings: cassette IV 5 mg/kg; for concentration at 5 min: 10% DMSO in PBS
Experimental: BBB permeability of the compounds was tested in male CD-1@IGS mice using cassette intravenous dosing (Table 7 and FIGS. 6A and 6B). There were three animals in each group, given a dose of 5 mg/kg formulated in 10% DMSO in PBS (v/v) for 5 minutes. The endpoint was quantifying the parent compound using LC-MS/MS. Plasma samples (50 μl) were immediately mixed with 25 μl of H3PO4 (8.5%). Then 225 μl of internal standard (IS; 400 ng/ml meldonium in methanol) was added. After mixing by pipetting and centrifuging for 4 min at 6000 rpm, 2 μl of each supernatant was injected into LC-MS/MS system. Brain samples (100 mg±1 mg) were immediately mixed with 100 μl H3PO4 (25%) and zirconium oxide beads (115 mg±5 mg). Then 400 μl of IS solution was added and samples were disperse using a bullet blender homogenizer for 30 seconds at speed 8. The samples were centrifuged for 4 min at 14,000 rpm and 2 μl of each supernatant was injected into LC-MS/MS system.

[3] = Aqueous chemical stability (HPLC-MS); type: physicochemical
Experimental: Detection of products of non-enzymatic cleavage (AIC-TMZ, AIC-TP3, AIC-TP5, and AIC-TP9) was performed (Table 4; FIGS. 5A-5D).

GBM8 = test: AlamarBlue cell viability, GBM8 patient-derived cell line; type: cell-based; settings: 72 h, read-out: IC50, 72 h
Experimental: (§1) The effect of selected compounds on glioma cells viability was determined. The cells were plated at 2000 cells/well in 96 well plates. The day after, cells were treated with various concentrations of temozolomide or VMY-TP analogs.

P-gp = test: Bidirectional Caco-2 permeability / P-gp efflux assay; type: in vitro ADME; settings: human
Experimental: (§2) Permeability of the compounds was evaluated in the bidirectional Caco-2 assay including identification of P-glycoprotein substrate (Pgp-mediated transport). Verapamil was used as a p-gp inhibitor. The apparent permeability (Papp) was calculated using the following equation:
(§3) Papp=VA/Area×Time×[drug]acc/[drug]initial,d
(§4) Permeability of the compounds was evaluated in the bidirectional Caco-2 assay as described in Example 11 (Table 15).

U251 [4] = test: cells; settings: read-out: IC50, 72 h
Experimental: as §1
(§5) Activity of TP-RGD was assessed in glioma cell cultures, as described in Example 11.

U87 = test: cells; settings: read-out: IC50, 72 h
Experimental: as §1, §5

T98G = test: cells
Experimental: as §1, §5

Caco-2 = test: Bidirectional Caco-2 permeability / P-gp efflux assay; type: in vitro ADME; settings: human, Caco-2
Experimental: as §2, §3, §4

[5] = for % decomp.: AIC formation, pH>7.4, 60° C.; for % SM: phosphate buffer pH>7.4, 60° C.
Experimental: 2 mg of TP-RGD was dissolved in 0.8 mL of phosphate buffer at pH>7.4. […] Then the reaction temperature was increased to 60° C. and incubated for 4 h. During the period of incubation, the reaction was monitored for every 30 min by LC-MS. Measure the AIC formation (% decomp) over the time.

U251 [6] = settings: read-out: IC50 U251 cell proliferation (BrdU ELISA); 72 hours of treatment
Experimental: U87 cells were seeded at the density of 2,000 cells/well in 96-well plates and incubated overnight. The day after, cells were treated with various concentrations of Temozolomide or analogs for 72 hours. The BrdU ELISA proliferation assay was performed according to the manufacturer's instructions (Roche, #11647229001). Briefly, 20 μl of diluted BrdU labelling reagent was added to each well, to a final concentration of 10 μM BrdU per well. The cells were then incubated at 37° C. for 24 hours. Following this incubation, the labeling medium was aspirated from each well and 200 μl of Roche FixDenat fixing buffer was added. The plates were then incubated at 25° C. for 30 minutes. The fixing solution was removed, and 100 μl of Anti-BrdU-POD antibody was added to each well and incubated again at 25° C. for 90 minutes. Wells were rinsed three times with 200 μl of PBS, then 100 μl of Roche Substrate solution was added to each well. Following a 25 minute incubation at room temperature, the absorbance of each plate was read at 370 nm (reference wavelength: approx. 492 nm) on a Spectramax® i3x microplate reader.
The effect on U251 cell proliferation after 72 hours of treatment was also assessed using the BrdU ELISA cell proliferation assay as described in Example 11.

P-glycoprotein (P-gp) = test: Bidirectional Caco-2 permeability / P-gp efflux assay; type: in vitro ADME; settings: human; Caco-2 permeability; P-gp efflux ratio, Table 15
Experimental: as §2, §3, §4

A172 = test: cells; settings: read-out: IC50, 72 h; A172, MGMT −, Table 14
Experimental: as §1, §5

Structure (SMILES): Cn1nnc2c(C(=O)NC3CCCCC3)ncn2c1=O [TP5, N-cyclohexyl-3-methyl-4-oxo-3,4-dihydroimidazo[5,1-d][1,2,3,5]tetrazine-8-carboxamide]
- Clearance Classification (Low <8.6; High >48) [1]: Moderate
- microsomal CLint ([1]; mouse, liver microsomes, read-out: Intrinsic clearance (Clint)): 25 µL/min/mg
- % remaining (1 h) With co-factors ([1]; with co-factors): 49%
- % remaining (1 h) Without co-factors ([1]; without co-factors): 94%
- IC50 (T98G cells; Homo sapiens, read-out: IC50 With O^6-BG pretreatment): 168 µM
- IC50 (T98G cells; Homo sapiens, read-out: IC50 Without O^6-BG pretreatment): 410 µM
- % Brain ([2]; 5 min): 25%
- % Plasma ([2]; 5 min): 75%
- concentration at 5 min ([2]; male, CD-1, mouse, brain, read-out: Brain Conc.): 3050 ng/g
- Kp at 5 min ([2]; male, CD-1, mouse, brain/plasma): 0.99
- concentration at 5 min ([2]; male, CD-1, mouse, plasma, read-out: Plasma Conc): 3120 ng/mL
- half-life at 1 μM ([3]; 0.1 M phosphate buffer pH 7.0): > 2 h
- half-life at 1 μM ([3]; 0.1 M phosphate buffer pH 8.0): 0.667 h
- half-life at 1 μM ([3]; PBS pH 7.4): 1.15 h
- IC50 (GBM8): 28 µM
- efflux ratio (P-gp; Caco-2, without verapamil, read-out: Efflux Ratio BA/AB p-gp Inhibitor (−)): 0.9
- Papp A→B (P-gp; Caco-2, without verapamil, read-out: Papp (AB) p-gp Inhibitor (−)): 26.6 ×10⁻⁶ cm/s
- Papp B→A (P-gp; Caco-2, without verapamil, read-out: Papp (BA) p-gp Inhibitor (−)): 24.3 ×10⁻⁶ cm/s
- IC50 (U251 [4]; Homo sapiens, U-251, 72 h): 139 µM
- IC50 (U87; Homo sapiens, U-87 MG, 72 h): 168 µM
- IC50 (T98G; Homo sapiens, 72 h, read-out: IC50, 72 h): 581 µM

Structure (SMILES): C[C@H]1O[C@@H](O[C@H]2[C@@H](O)C[C@H](O[C@H]3[C@@H](O)C[C@H](O[C@H]4CC[C@@]5(C)[C@H](CC[C@@H]6[C@@H]5C[C@@H](O)[C@]5(C)[C@@H](C7=CC(=O)OC7)CC[C@]65O)C4)O[C@@H]3C)O[C@@H]2C)C[C@H](O)[C@@H]1O [Digoxin]
- Papp A→B (P-gp; Caco-2): 1.2 ×10⁻⁶ cm/s
- Papp B→A (P-gp; Caco-2): 15.8 ×10⁻⁶ cm/s
- efflux ratio (P-gp; Caco-2, Efflux Ratio BA/AB p-gp Inhibitor (−)): 13.6
- Efflux Ratio BA/AB p-gp Inhibitor (+) (Caco-2): 1.0
- Papp (AB) p-gp Inhibitor (+) (Caco-2): 5.9 10^−6 cm/s
- Papp (BA) p-gp Inhibitor (+) (Caco-2): 6.1 10^−6 cm/s

Structure (SMILES): Cn1nnc2c(C(=O)NCCCC[C@@H]3NC(=O)[C@@H](Cc4ccc(O)cc4)NC(=O)[C@H](CC(=O)O)NC(=O)CNC(=O)[C@H](CCCNC(=N)N)NC3=O)ncn2c1=O [TP-RGD]
- % decomp. ([5]; 0.5 h): 0%
- % decomp. ([5]; 1 h): 18.2%
- % decomp. ([5]; 1.5 h): 33.9%
- % decomp. ([5]; 2 h): 53.5%
- % decomp. ([5]; 2.5 h): 56.8%
- % decomp. ([5]; 3 h): 61.6%
- % decomp. ([5]; 4 h): 94.7%
- % decomp. ([5]; 4.5 h): 94.7%
- % SM ([5]; 1 h): 81.8%
- % SM ([5]; 1.5 h): 65.5%
- % SM ([5]; 2 h): 45.9%
- % SM ([5]; 2.5 h): 39.3%
- % SM ([5]; 3 h): 27.4%
- % SM ([5]; 4 h): 2.3%
- % SM ([5]; 4.5 h): 2.3%
- product formation (hydrolysis) ([5]; phosphate buffer pH>7.4, room temperature): no product formation
- IC50 (U251 [6]): 70.2 µM
- efflux ratio (P-glycoprotein (P-gp)): 0.57
- IC50 (A172): 0.383 µM
- IC50 (U251 [4]; U251, MGMT −, Table 14): 0.306 µM
- IC50 (U87; U87MG, MGMT −, Table 14): > 100 µM
- IC50 (T98G; read-out: IC50, 72 h, MGMT +++, Table 14): 0.254 µM

Structure (SMILES): O[C@H]([C@H](O)[C@@H]1CO1)[C@H]1CO1 [VAL-083, reference compound]
- IC50 (T98G cells; 5-6 h pretreatment with 100 μM O6-BG, 3 days, read-out: IC50 With O^6-BG pretreatment): 71 µM
- IC50 (T98G cells; 3 days, read-out: IC50 Without O^6-BG pretreatment): 108 µM

Structure (SMILES): CC[C@]1(O)C[C@@H]2CN(CCc3c([nH]c4ccccc34)[C@@](C(=O)OC)(c3cc4c(cc3OC)N(C)[C@H]3[C@@](O)(C(=O)OC)[C@H](OC(C)=O)[C@]5(CC)C=CCN6CC[C@]43[C@@H]65)C2)C1 [Vinblastine]
- efflux ratio (P-gp; Caco-2, Efflux Ratio): 21.7
